Results from patent US6444646B1, “Use of angiotensin II type 2 receptor agonists in tissue repair” (University of Southern California, priority 1995, dated 2002).
Where two headings read alike, the source gives them in different places. Non-standard residues stand in square brackets, D forms with d. No end group written: not given here. Phe(4-NH2) = Nc1ccc(C[C@H](N)C(=O)O)cc1

Key:
[1] = tested on: intimal hyperplasia after balloon injury; conditions: cited from earlier work
wound tissue = conditions: applied to wound tissue; cited from earlier work
[2] = tested on: full thickness dermal wounds; assay: rat model for dermal repair (full thickness dermal wounds); type: in vivo; conditions: 100 μg/d for 5 days
Procedure: Female Sprague Dawley rats, 175-200 g, were obtained from Simonsen Laboratories, Gilroy, Calif. On the day of surgery, the rats received intramuscular ketamine/rompum anesthesia prior to preparation for surgery. The rats were shaved and scrubbed with betadine. Two 1.5×1.5 cm full thickness dermal wounds were created on the dorsal surface of the rat. Following excision of the skin, the size of the wound was outlined on a glass slide and the medicament was administered in 100 μl 10% low viscosity carboxymethyl cellulose (Sigma). The test materials were administered in a randomized fashion; all materials were tested at 100 μg/wound. Controls were treated with vehicle only. After administration of the materials, the rats were bandaged and allowed to recover from anesthesia. On days 1-4 after surgery, the rats were treated with an additional 100 μg of peptide formulation. At days 2, 4 ,7 and 9, the area of the skin wounds were measured under methoxyflurane anesthesia (commercially available as Metofane from Pittman-Moore, Mundelein, Ill.). The area of the wound was determined by (1) tracing the wound shape onto graph paper (1×1 mm squares); (2) cutting out the shape; (3) weighing the paper and comparing the weight with a 1.5×1.5 cm paper cutout; and (4) counting the number of squares. In addition, on days 2, 4 and 7, the area of granulation tissue was similarly determined.
As illustrated in FIGS. 1-2, wound closure and the formation of granulation tissue was substantially accelerated relative to the control animals when the test animals were treated with an AT2 agonist. FIG. 1 illustrates the percent of control response in wound closure relative to a vehicle-treated control; FIG. 2 illustrates the percent increase in formation of granulation tissue relative to a vehicle control.

AT2 receptor [3] = conditions: higher affinity for AT2 than AT1; cited from earlier work
AT2 receptor [4] = conditions: experimental models tested (rabbit vas deferens; NG-108-15); cited from earlier work
[5] = rat dermal wounds, relative to vehicle-treated control

Cc1cc(Cn2cnc3c2C[C@@H](C(=O)O)N(C(=O)C(c2ccccc2)c2ccccc2)C3)ccc1N(C)C [PD 123319]
reduction of intimal hyperplasia ([1]; rats, after balloon injury): 73%

CCCCc1nc(Cl)c(CO)n1Cc1ccc(-c2ccccc2-c2nn[nH]n2)cc1 [losartan]
neointimal formation ([1]; other studies, higher doses): effective | decrease of intimal area ([1]; rats, after balloon injury): 95% | neointimal formation ([1]; similar model, low doses): ineffective

Asp-Arg-Val-Tyr-Ile-His-Pro-Phe (DRVYIHPF) [angiotensin II, octapeptide present in humans and other species; known pressor agent]
rate of wound healing (wound tissue): significantly increases

Asp-Arg-Val-Tyr-Ile-Xaa-Pro-Phe [SEQ ID NO:2] wherein Xaa is p-NH2-Phe (DRVYI[Phe(4-NH2)]PF) [p-aminophenylalanine6-AII]
granulation tissue formation [2, 5]: accelerated | wound closure [2, 5]: accelerated | results in dermal repair compared with AII ([2]; rat): comparable to AII | affinity for AT2 relative to AT1 (AT2 receptor [3]): 1000 × | binding characteristics (AT2 receptor [4]): comparable to the AT2 antagonists

CGP 42112
neointimal formation ([1]; similar model, infused perivascularly for 14 days): prevented neointimal formation
